These results are taken from article PMC12406685, “Thiazole substitution of a labile amide bond—a new option toward antiplasmodial pantothenamide-mimics” (Antimicrobial Agents and Chemotherapy, 2025).

One experiment has as its system human hepatoblastoma cells (HepG2). Kind of experiment: In vitro HepG2 proliferation assay (Incucyte confluency). The class given is cell-based. The note with it: 10 µM. The procedure:
(§1) HFF cells were maintained in vitro in DMEM supplemented with 10% (vol/vol) newborn calf serum, 50 units/mL penicillin, 50 µg/mL streptomycin, 10 µg/mL gentamicin, 0.2 mM L-glutamine, and 0.25 µg/mL amphotericin B, as previously described ([99]). HepG2 cells were maintained in RPMI-1640 medium (Thermo Fisher Scientific, catalogue number 72400120) supplemented with 10% (vol/vol) fetal bovine serum, 50 units/mL penicillin, and 50 µg/mL streptomycin.
In vitro HepG2 proliferation assays were performed similarly to the HFF proliferation assays with modifications. Confluent HepG2 cells were harvested by treatment with 1 × trypsin–EDTA and diluted in RPMI-1640 supplemented with 10% (vol/vol) fetal bovine serum. Assays were set up in 96-well microtiter plates with 20,000 cells per well. Puromycin (10 µM) was used as a non-proliferation control, and 0.1% (vol/vol) DMSO served as a 100% proliferation control. The plates were incubated at 37°C in a CO2 incubator for 72 h, and the Incucyte Live-Cell Analysis System (Essen BioScience) was used to capture cellular changes and assess cell growth in each well over time as described above for the HFF proliferation assays. The bottom of the curve was constrained to 0 when fitting for HepG2 proliferation assays using GraphPad Prism.
For `COc1ccc(C[C@H](N)C(=O)N[C@H]2[C@@H](O)[C@H](n3cnc4c(N(C)C)ncnc43)O[C@@H]2CO)cc1` [puromycin, reference compound], the “Effect on proliferation of HepG2 cells (positive control)” value is listed as “completely inhibited”.

The next experiment relates to PfPanK.
Assay: not given
Also on record: method as in PMID 29614109, PMID 11278793, PMID 24333332. The note with it: mean ± SEM; read-out: Km for pantothenate of PfPanK in parasite lysates; cited from earlier work.
In the case of `CC(C)(CO)[C@@H](O)C(=O)NCCC(=O)O` [D-Pantothenate], the Km is 0.27 ± 0.095 µM.

The test system of the next experiment is intraerythrocytic P. falciparum. Briefly: In vitro parasite proliferation assay (SYBR Safe-based fluorescence). The class given is cell-based, Plasmodium falciparum (3D7 strain). The note with it: Plasmodium falciparum; intraerythrocytic stage, RPMI-1640 containing 1 µM pantothenate, 96 h; mean ± SEM of three experiments; read-out: IC50 (µM) against Pf at 1 µM Pan. Here is the method:
Culturing of intraerythrocytic stage P. falciparum parasites (3D7 strain) was carried out using a method adapted from Trager and Jensen ([97]) and Allen and Kirk ([98]). Parasites were maintained within human, male or female, erythrocytes (typically Group O+, Rh+, 4% hematocrit) in RPMI-1640 medium (Thermo Fisher Scientific, catalogue number 72400120) supplemented with 25 mM HEPES, 11 mM glucose, 200 μM hypoxanthine, 24 μg/mL gentamicin and 6 g/L Albumax II on a horizontally rotating shaking incubator (New Brunswick Innova 42/[…]) at 37°C under an atmosphere of 96% nitrogen, 3% carbon dioxide, and 1% oxygen. To evaluate the effect of each compound on the in vitro proliferation of P. falciparum parasites, a SYBR Safe-based fluorescence assay was used as previously described ([32]). All pantothenamide-mimics tested were initially dissolved to a concentration of 200 mM in DMSO. The final DMSO concentration in the assay never exceeded 0.1% (vol/vol). Assays were performed using the same medium used to culture the parasites. […] Assays were set up with synchronous ring-stage P. falciparum-infected erythrocytes in 96-well microtiter plates. Parasites were synchronized using 5% (wt/vol) sorbitol ([100]). […] P. falciparum-infected erythrocytes incubated in the presence of 0.5 μM chloroquine were used as a non-proliferation control, and those incubated in the absence of compounds and chloroquine served as a 100% parasite proliferation control. To minimize “edge effects” ([101], [102]), the outermost rows and columns of the microtiter plates were not used in the proliferation assays and were filled with 200 μL of medium. The plates were then incubated at 37°C for 96 h under a low-oxygen atmosphere. At the end of the incubation, plates were frozen at -80°C to lyse the cells. […] The fluorescence in the non-proliferation control wells was subtracted from the fluorescence readings in the other wells prior to further analysis. Parasite proliferation, calculated as a percentage of the fluorescence measured in the test wells relative to the fluorescence measured in the 100% parasite proliferation control wells, was then plotted against the logarithm of the compound concentration. […] IC50 values (determined from the sigmoidal curves) were averaged from three independent experiments.
`CCCCCCc1nc(CNC(=O)[C@H](O)C(C)(C)CO)cs1` [Compound 2b]: the 50% inhibitory concentration (IC50) came out at 5.2 ± 0.6 µM.
On the same count and under the same terms, for `CC(C)(CO)[C@@H](O)C(=O)NCc1csc(-c2ccc(C(F)(F)F)cc2)n1` [Compound 2g] the value was 57 ± 2 µM; for `CCCCCCc1csc(CNC(=O)[C@H](O)C(C)(C)CO)n1` [Compound 1d], 4.3 ± 0.4 µM.
Still for that read-out and setting: for `CC(C)(CO)[C@@H](O)C(=O)NCc1cnc(-c2ccc(F)cc2)s1` [Compound 3g] the value was 14 ± 2 µM; for `CC(C)(CO)[C@@H](O)C(=O)NCc1cnc(CCc2ccccc2)s1` [Compound 3e], 44 ± 1 µM; for `CC(C)(CO)[C@@H](O)C(=O)NCc1csc(-c2cccc(C(F)(F)F)c2)n1` [Compound 2h], 21 ± 1 µM.
For the compound `CC(C)CCc1csc(CNC(=O)[C@H](O)C(C)(C)CO)n1` [Compound 1b], the IC50 was 2.9 ± 0.2 µM.
`CCCCCCc1ncc(CNC(=O)[C@H](O)C(C)(C)CO)s1` [Compound 3c]: the IC50 turned out to be 35 ± 2 µM.
Same read-out and setting: the same measure for `CC(C)(CO)[C@@H](O)C(=O)NCc1csc(Cc2ccc3ccccc3c2)n1` [Compound 2d]: 6.5 ± 0.1 µM.
As to `CC(C)(CO)[C@@H](O)C(=O)NCc1cnc(-c2ccc(C(F)(F)F)cc2)s1` [Compound 3i], the IC50 came out at 46 ± 6 µM.
On the same count and under the same terms, the same measure for `CCCCCc1ncc(CNC(=O)[C@H](O)C(C)(C)CO)s1` [Compound 3b]: 12 ± 1 µM; for `CC(C)(CO)[C@@H](O)C(=O)NCc1csc(-c2ccc(Cl)cc2)n1` [Compound 2f]: 3.1 ± 0.3 µM; for `CCCCCc1nc(CNC(=O)[C@H](O)C(C)(C)CO)cs1` [Compound 2a]: 5.6 ± 0.2 µM.
Still for that read-out and setting: for `CC(C)(CO)[C@@H](O)C(=O)NCc1cnc(-c2ccc(Cl)cc2)s1` [Compound 3h] the value was 44 ± 4 µM.
Still for that read-out and setting: for `CCCCc1ncc(CNC(=O)[C@H](O)C(C)(C)CO)s1` [Compound 3a] the value was 11 ± 1 µM.
Consider `CC(C)(CO)[C@@H](O)C(=O)NCc1cnc(Cc2ccccc2)s1` [Compound 3d], for which the IC50 worked out at 16 ± 1 µM.
On the same count and under the same terms, for `CC(C)(CO)[C@@H](O)C(=O)NCc1cnc(-c2cccc(C(F)(F)F)c2)s1` [Compound 3j] the value was 11 ± 1 µM.

Another experiment shares this test system.
Assay: not given
The note with it: absence of pantetheinases; read-out: IC50 in the absence of pantetheinases; cited from earlier work.
For the compound `CCCCCNC(=O)CCNC(=O)[C@H](O)C(C)(C)CO` [Compound N5-Pan], the IC50 was 2 ± 0.5 µM.

Staying with this experiment, now noted: in the presence of pantetheinases; read-out: IC50 against intraerythrocytic P. falciparum; cited from earlier work.
As to `CCCCCCc1cc(CNC(=O)[C@H](O)C(C)(C)CO)no1` [iv], the IC50 is 0.16 ± 0.01 µM.
Turning to `CCCCCCn1cc(CNC(=O)[C@H](O)C(C)(C)CO)nn1` [ii], the IC50 was 0.055 ± 0.005 µM.
Take `CCCCCn1cc(CNC(=O)[C@H](O)C(C)(C)CO)nn1` [compound i]: the IC50 is 0.056 ± 0.005 µM.
For `CCCCCc1nnc(CNC(=O)[C@H](O)C(C)(C)CO)s1` [compound v], the IC50 was 0.96 ± 0.05 µM.
Turning to `CCCCCc1cc(CNC(=O)[C@H](O)C(C)(C)CO)no1` [iii], the IC50 is 0.072 ± 0.003 µM.

The experiment is the same for the next values; noted with them: presence of pantetheinases; read-out: IC50 in the presence of pantetheinases; cited from earlier work.
On to `CCCCCNC(=O)CCNC(=O)[C@H](O)C(C)(C)CO` [Compound N5-Pan], for which the IC50 is 124 ± 15 µM.

The next experiment concerns the target T1, HsPanK3 (Homo sapiens, UniProt Q9H999).
T1 sequence (Q9H999 12-368): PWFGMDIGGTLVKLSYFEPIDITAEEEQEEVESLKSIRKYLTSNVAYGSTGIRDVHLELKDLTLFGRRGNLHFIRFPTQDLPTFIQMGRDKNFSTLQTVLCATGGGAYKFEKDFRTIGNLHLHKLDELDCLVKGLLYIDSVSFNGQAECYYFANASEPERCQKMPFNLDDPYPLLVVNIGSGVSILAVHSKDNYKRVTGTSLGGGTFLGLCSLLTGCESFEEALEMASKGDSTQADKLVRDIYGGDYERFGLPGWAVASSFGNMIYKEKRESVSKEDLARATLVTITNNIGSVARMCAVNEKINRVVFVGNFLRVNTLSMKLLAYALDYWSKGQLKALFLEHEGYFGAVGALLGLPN
Assay: not given
The note with it: read-out: Km for pantothenate of HsPanK3, previous reports; cited from earlier work.
On to `CC(C)(CO)[C@@H](O)C(=O)NCCC(=O)O` [D-Pantothenate], for which the Km is 17 ± 1 µM.

The test system of another experiment is human foreskin fibroblasts (HFF). Kind of experiment: In vitro HFF proliferation assay (Incucyte confluency). It is filed as cell-based. Conditions: 10 µM. The procedure:
as §1
In vitro HFF proliferation assays were performed as previously described by Howieson et al. ([32]), with modifications. Confluent HFF cells (in a 75 cm^2 flask) were harvested by treatment with 1 × trypsin–EDTA (0.25% [wt/vol] trypsin +0.2 g/L EDTA) and diluted in 21 mL of DMEM supplemented with 10% [vol/vol] newborn calf serum ([32]). Assays were set up in 96-well microtiter plates in a similar way to that described for the antiplasmodial activity assay. Cycloheximide (10 µM) was used as a non-proliferation control, and 0.1% (vol/vol) DMSO served as a 100% proliferation control. The plates were incubated at 37°C in a CO2 incubator for 96 h, and the Incucyte Live-Cell Analysis System (Essen BioScience) was used to capture cellular changes and assess cell growth in each well over time. Each well was scanned to capture bright field images, and confluency was assessed at the end of the 96 h incubation, which was then used to evaluate the effect of each compound on the proliferation of HFF cells by comparing it to the 100% proliferation control. The bottom of the curve was constrained to 0 when fitting for HFF proliferation assays using GraphPad Prism.
`C[C@@H]1C[C@@H]([C@H](O)CC2CC(=O)NC(=O)C2)C(=O)[C@@H](C)C1` [Cycloheximide, reference compound]: the “Effect on proliferation of HFF cells (positive control)” value is on record as “completely inhibited the proliferation”.
